Earlier results on 2 compounds are cited in patent US20080293724A1, “Methods Using Hydralazine Compounds and Isosorbide Dinitrate or Isosorbide Mononitrate” (NITROMED, INC., priority 2006, published 2008).

Structures are written as SMILES. Counter-ions that a name gives are not always drawn.

Consider `NNc1nncc2ccccc12` [Hydralazine hydrochloride, hydralazine hydrochloride], for which the solubility in water entry is recorded as “soluble”. Moreover, the solubility in alcohol entry (alcohol) is reported as “slightly soluble”. The solubility in ether entry (ether) was “very slightly soluble”.

Take `O=[N+]([O-])O[C@H]1CO[C@H]2[C@@H]1OC[C@H]2O[N+](=O)[O-]` [isosorbide dinitrate, 1,4,3,6-dianhydro-D-glucitol-2,5-dinitrate]: the solubility in water entry was “sparingly soluble”. Moreover, for the setting “organic solvents such as ethanol, ether and chloroform”, the “solubility in organic solvents” value is on record as “freely soluble”.
